Measured values from patent US6855843B2, “Inhibitors of α4 mediated cell adhesion” (Tanabe Seiyaku Co., Ltd., priority 1998, dated 2005).
Structures can show the parent of a compound that is named as a salt.

Target: T1, α4β7 (adhesion of RPMI cells to CS-1) (Homo sapiens, UniProt P13612+P26010)
T1 construct: endogenous in cells
T1 sequence (P13612 34-1032): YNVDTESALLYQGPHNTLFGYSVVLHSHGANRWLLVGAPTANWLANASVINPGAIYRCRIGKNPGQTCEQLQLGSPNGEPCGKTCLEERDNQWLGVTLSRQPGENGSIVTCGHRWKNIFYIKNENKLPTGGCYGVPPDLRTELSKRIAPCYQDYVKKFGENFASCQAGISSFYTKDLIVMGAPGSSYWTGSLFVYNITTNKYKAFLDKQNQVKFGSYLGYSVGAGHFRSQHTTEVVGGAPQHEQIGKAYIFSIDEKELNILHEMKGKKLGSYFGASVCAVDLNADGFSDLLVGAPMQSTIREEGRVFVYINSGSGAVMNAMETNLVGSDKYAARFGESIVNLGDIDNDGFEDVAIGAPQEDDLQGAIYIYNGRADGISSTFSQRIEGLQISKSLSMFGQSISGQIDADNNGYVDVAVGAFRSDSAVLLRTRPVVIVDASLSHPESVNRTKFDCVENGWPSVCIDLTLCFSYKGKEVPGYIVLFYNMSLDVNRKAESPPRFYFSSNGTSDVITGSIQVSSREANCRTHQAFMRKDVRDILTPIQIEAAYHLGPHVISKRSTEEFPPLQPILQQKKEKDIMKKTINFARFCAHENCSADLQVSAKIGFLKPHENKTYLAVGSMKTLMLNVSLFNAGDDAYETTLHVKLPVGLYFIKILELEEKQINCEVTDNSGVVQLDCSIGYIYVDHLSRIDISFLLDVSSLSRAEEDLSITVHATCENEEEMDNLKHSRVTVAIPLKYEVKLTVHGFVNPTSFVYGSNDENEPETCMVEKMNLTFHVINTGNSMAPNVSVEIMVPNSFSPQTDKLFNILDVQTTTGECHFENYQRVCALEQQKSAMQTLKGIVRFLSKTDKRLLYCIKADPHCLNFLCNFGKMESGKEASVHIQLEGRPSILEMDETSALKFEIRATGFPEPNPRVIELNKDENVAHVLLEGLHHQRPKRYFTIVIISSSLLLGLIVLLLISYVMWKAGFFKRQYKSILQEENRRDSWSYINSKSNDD
T1 sequence (P26010 20-798): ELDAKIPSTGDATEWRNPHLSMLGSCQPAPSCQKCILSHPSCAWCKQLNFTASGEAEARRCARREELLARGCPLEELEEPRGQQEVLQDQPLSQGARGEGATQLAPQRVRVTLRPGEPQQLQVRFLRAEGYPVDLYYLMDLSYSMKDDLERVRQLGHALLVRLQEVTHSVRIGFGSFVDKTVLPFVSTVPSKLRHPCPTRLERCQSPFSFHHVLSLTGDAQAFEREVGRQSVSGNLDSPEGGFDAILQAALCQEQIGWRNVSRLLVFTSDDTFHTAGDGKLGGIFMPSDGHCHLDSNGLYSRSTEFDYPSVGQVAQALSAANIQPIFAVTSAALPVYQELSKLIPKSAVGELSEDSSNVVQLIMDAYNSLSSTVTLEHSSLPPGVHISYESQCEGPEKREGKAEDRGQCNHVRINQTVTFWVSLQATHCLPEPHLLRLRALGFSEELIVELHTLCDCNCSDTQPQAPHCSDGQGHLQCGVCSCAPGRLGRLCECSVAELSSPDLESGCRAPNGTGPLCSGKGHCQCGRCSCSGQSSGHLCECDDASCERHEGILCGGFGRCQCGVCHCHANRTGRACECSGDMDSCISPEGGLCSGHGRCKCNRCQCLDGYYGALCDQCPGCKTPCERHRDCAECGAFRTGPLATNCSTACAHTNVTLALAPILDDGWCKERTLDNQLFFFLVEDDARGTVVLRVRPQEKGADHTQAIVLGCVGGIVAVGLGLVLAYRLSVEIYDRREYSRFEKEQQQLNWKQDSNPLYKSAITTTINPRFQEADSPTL
Assay: RPMI-CS-1 cell adhesion assay
Type: cell-based
Conditions: adhesion of RPMI B-cell line (expresses α4β7) to CS-1 peptide coated microwells; read-out: RPMI-CS-1 IC50 value range

Row | SMILES | IC50 [nM]
1 | CCOc1ccc2c(c1-c1ccc(C[C@H](NC(=O)c3c(Cl)cccc3Cl)C(=O)O)cc1)OCO2 [Example 237, N-(2,6-Dichlorobenzoyl)-4-(2,3-methylenedioxy-6-ethoxyphenyl)-L-phenylalanine] | < 300
2 | O=C(N[C@@H](Cc1ccc(-c2c(OCCO)ccc3c2OCO3)cc1)C(=O)O)c1c(Cl)cccc1Cl [Example 238, N-(2,6-Dichlorobenzoyl)-4-[2,3-methylenedioxy-6-(2-hydroxyethoxy)phenyl]-L-phenylalanine] | < 300
3 | N#CCOc1ccc2c(c1-c1ccc(C[C@H](NC(=O)c3c(Cl)cccc3Cl)C(=O)O)cc1)OCO2 [Example 239, N-(2,6-Dichlorobenzoyl)-4-[2,3-methylenedioxy-6-(cyanomethoxy)phenyl]-L-phenylalanine] | < 300
4 | COc1ccc2c(c1-c1ccc(C[C@H](NC(=O)c3c(Cl)cccc3Cl)C(=O)O)cc1)OCO2 [Example 240, N-(2,6-Dichlorobenzoyl)-4-(2,3-methylenedioxy-6-methoxyphenyl)-L-phenylalanine] | < 300
5 | COc1cc(CN2CCCC2)cc(OC)c1-c1ccc(C[C@H](NC(=O)c2c(Cl)cccc2Cl)C(=O)O)cc1 [Example 243] | < 300
6 | COc1cc(CN2CCC3(CC2)OCCO3)cc(OC)c1-c1ccc(C[C@H](NC(=O)c2c(Cl)cccc2Cl)C(=O)O)cc1 [Example 244] | < 300
7 | COc1cc(CN2CC(C)OC(C)C2)cc(OC)c1-c1ccc(C[C@H](NC(=O)c2c(Cl)cccc2Cl)C(=O)O)cc1 (stereo partly shown) [Example 245] | < 300
8 | COc1cc(CNCCO)cc(OC)c1-c1ccc(C[C@H](NC(=O)c2c(Cl)cccc2Cl)C(=O)O)cc1 [Example 246] | < 300
9 | COc1cc(CN(C)CCN(C)C)cc(OC)c1-c1ccc(C[C@H](NC(=O)c2c(Cl)cccc2Cl)C(=O)O)cc1 [Example 247] | < 300
10 | COc1cc(CN2CCN(C)CC2)cc(OC)c1-c1ccc(C[C@H](NC(=O)c2c(Cl)cccc2Cl)C(=O)O)cc1 [Example 248] | < 300
11 | COc1cc(CN2CCN(CCO)CC2)cc(OC)c1-c1ccc(C[C@H](NC(=O)c2c(Cl)cccc2Cl)C(=O)O)cc1 [Example 250] | < 300
12 | COc1cc(CN2CCN(C(C)=O)CC2)cc(OC)c1-c1ccc(C[C@H](NC(=O)c2c(Cl)cccc2Cl)C(=O)O)cc1 [Example 251] | < 300
13 | CCCN1CCN(Cc2cc(OC)c(-c3ccc(C[C@H](NC(=O)c4c(Cl)cccc4Cl)C(=O)O)cc3)c(OC)c2)CC1 [Example 252] | < 300
14 | COc1cc(CN(C)C)cc(OC)c1-c1ccc(C[C@H](NC(=O)c2c(Cl)cccc2Cl)C(=O)O)cc1 [Example 255, N-(2,6-Dichlorobenzoyl)-4-[2,6-dimethoxy-4-[(N,N-dimethylamino)methyl]phenyl]-L-phenylalanine] | < 300
15 | COc1cc(CN2CCCCC2)cc(OC)c1-c1ccc(C[C@H](NC(=O)c2c(Cl)cccc2Cl)C(=O)O)cc1 [Example 256, N-(2,6-Dichlorobenzoyl)-4-[2,6-dimethoxy-4-(piperidinomethyl)phenyl]-L-phenylalanine] | < 300
16 | COc1cc(CN2CCN(Cc3ccccc3)CC2)cc(OC)c1-c1ccc(C[C@H](NC(=O)c2c(Cl)cccc2Cl)C(=O)O)cc1 [Example 258, N-(2,6-Dichlorobenzoyl)-4-[2,6-dimethoxy-4-[(4-benzyl-1-piperazinyl)methyl]phenyl]-L-phenylalanine] | < 300
17 | CCOC(=O)[C@H](Cc1ccc(-c2c(OC)cc(CN(C)C)cc2OC)cc1)NC(=O)c1c(Cl)cccc1Cl [Example 259, N-(2,6-Dichlorobenzoyl)-4-[2,6-dimethoxy-4-[(N,N-dimethylamino)methyl]phenyl]-L-phenylalanine ethyl ester hydrochloride] | < 300

Row | SMILES | IC50 [nM]
18 | COc1cc(CN2CCNCC2)cc(OC)c1-c1ccc(C[C@H](NC(=O)c2c(Cl)cccc2Cl)C(=O)O)cc1 [Example 262, N-(2,6-Dichlorobenzoyl)-4-[2,6-dimethoxy-4-[(1-piperazinyl)methyl]phenyl]-L-phenylalanine] | < 300
19 | COc1cc(CN2CCS(=O)(=O)CC2)cc(OC)c1-c1ccc(C[C@H](NC(=O)c2c(Cl)cccc2Cl)C(=O)O)cc1 [Example 263A, N-(2,6-dichlorobenzoyl)-4-[2,6-dimethoxy-4-(thiomorpholinomethyl)phenyl]-L-phenylalanine S,S-dioxide] | < 300
20 | COc1cccc(OC)c1-c1ccc(C[C@H](NC(=O)c2c(Cl)cccc2Cl)C(=O)NS(C)(=O)=O)cc1 [Example 267, N-(2,6-Dichlorobenzoyl)-4-(2,6-dimethoxyphenyl)-L-phenylalanine N-(methylsulfonyl)amide] | > 5000
21 | COc1cccc(OC)c1-c1ccc(C[C@H](NC(=O)c2c(Cl)cccc2Cl)C(=O)NO)cc1 [Example 268, N-(2,6-dichlorobenzoyl)-4-(2,6-dimethoxyphenyl)-L-phenylalanine N-hydroxyamide] | 1000 to 5000
22 | COc1ccccc1-c1ccc(C[C@H](NC(=O)c2c(Cl)cccc2Cl)C(=O)NO)cc1 [Example 269, N-(2,6-Dichlorobenzoyl)-4-(2-methoxyphenyl)-L-phenylalanine N-hydroxyamide] | > 5000
23 | COc1cccc(OC)c1-c1ccc(C[C@H](NC(=O)c2c(Cl)cccc2Cl)c2nnn[nH]2)cc1 [Example 270, (1S)-N-(2,6-Dichlorobenzoyl)-2-[4-(2,6-dimethoxyphenyl)phenyl]-1-(1H-tetrazol-5-yl) ethylamine] | < 300
24 | COc1cccc(OC)c1-c1ccc(C[C@H](NC(=O)c2c(Cl)cccc2Cl)C(=O)OCc2cccnc2)cc1 [Example 273, N-(2,6-Dichlorobenzoyl)-4-(2,6-dimethoxyphenyl)-L-phenylalanine 3-pyridylmethyl ester] | 1000 to 5000
25 | COc1cccc(OC)c1-c1ccc(C[C@H](NC(=O)c2c(Cl)cccc2Cl)C(=O)OCc2ccncc2)cc1 [Example 274, N-(2,6-Dichlorobenzoyl)-4-(2,6-dimethoxyphenyl)-L-phenylalanine 4-pyridylmethyl ester] | 1000 to 5000
26 | COc1cccc(OC)c1-c1ccc(C[C@H](NC(=O)c2c(Cl)cccc2Cl)C(=O)OC(C)C)cc1 [Example 275, N-(2,6-Dichlorobenzoyl)-4-(2,6-dimethoxyphenyl)-L-phenylalanine i-propyl ester] | > 5000
27 | COc1cccc(OC)c1-c1ccc(C[C@H](NC(=O)c2c(Cl)cccc2Cl)C(=O)OC2CCCCC2)cc1 [Example 276, N-(2,6-Dichlorobenzoyl)-4-(2,6-dimethoxyphenyl)-L-phenylalanine cyclohexyl ester] | > 5000
28 | COc1cccc(OC)c1-c1ccc(C[C@H](NC(=O)c2c(C)cccc2Cl)C(=O)O)cc1 [Example 277] | < 300
29 | COc1cccc(OC)c1-c1ccc(C[C@H](NC(=O)c2c(F)cc(F)cc2F)C(=O)O)cc1 [Example 279] | < 300
30 | COc1cccc(OC)c1-c1ccc(C[C@H](NC(=O)c2ccccc2C(C)C)C(=O)O)cc1 [Example 280] | < 300
31 | COc1cccc(OC)c1-c1ccc(C[C@H](NC(=O)c2cccc(C)c2)C(=O)O)cc1 [Example 281] | 1000 to 5000
32 | COc1cccc(OC)c1-c1ccc(C[C@H](NC(=O)c2cccc(C#N)c2)C(=O)O)cc1 [Example 282] | 1000 to 5000
33 | COc1cccc(OC)c1-c1ccc(C[C@H](NC(=O)c2cccc([N+](=O)[O-])c2)C(=O)O)cc1 [Example 284] | 1000 to 5000
34 | COc1cccc(OC)c1-c1ccc(C[C@H](NC(=O)c2ccc(OC(C)C)cc2Cl)C(=O)O)cc1 [Example 285] | < 300
